What all share (format): functional
The test system of experiment [1] is Clostridium perfringens. Put plainly: Antimicrobial activity against Clostridium perfringens by agar dilution method in presence of 5% laked sheep blood. A general note: Agar dilution tests growth on a series of plates holding different concentrations.
In experiment [2] the test system is Fusobacterium nucleatum. Put plainly: Antimicrobial activity against Fusobacterium nucleatum ATCC 25586 by agar dilution method in presence of 5% laked sheep blood.
For experiment [3], the system named is Bacteroides stercoris. Put plainly: Antimicrobial activity against Bacteroides stercoris by agar dilution method in presence of 5% laked sheep blood.
Experiment [4] relates to Odoribacter splanchnicus. Kind of experiment: Antimicrobial activity against Odoribacter splanchnicus by agar dilution method in presence of 5% laked sheep blood.
The test system of experiment [5] is Prevotella melaninogenica. Put plainly: Antimicrobial activity against Prevotella melaninogenica JCM 6325 by agar dilution method in presence of 5% laked sheep blood. As to conditions: ATCC 25845.
Experiment [6] concerns Fusobacterium nucleatum. Kind of experiment: Antimicrobial activity against Fusobacterium nucleatum by agar dilution method in presence of 5% laked sheep blood.
In experiment [7] the test system is Fusobacterium varium. Put plainly: Antimicrobial activity against Fusobacterium varium by agar dilution method in presence of 5% laked sheep blood.

The term MIC50 denotes an inhibitory concentration at the 50% level, which refers to growth in some studies and to a panel of isolates in others. By MIC90 is commonly meant the lowest concentration that inhibits either 90% of growth or 90% of the strains tested, depending on the study. Broadly, the MIC is the lowest concentration found to suppress growth. Consider `Cc1ncc([N+](=O)[O-])n1CCO` [METRONIDAZOLE], for which the MIC50 in experiment [1] is 1 µg/mL; in experiment [3], 0.5 µg/mL; in experiment [4], 0.5 µg/mL; in experiment [6], no more than 0.015 µg/mL; in experiment [7], no more than 0.015 µg/mL. The MIC90 in experiment [1] worked out at 2 µg/mL; in experiment [3] it was 1 µg/mL; in experiment [4], 1 µg/mL; in experiment [6], 0.5 µg/mL; in experiment [7], 0.5 µg/mL. Moreover, the results for the MIC in experiment [2] and in experiment [5] were no more than 0.015 µg/mL and 1 µg/mL, respectively.

In the case of `C[C@@H](O)[C@H]1C(=O)N2C(C(=O)O)=C(S[C@@H]3CN[C@H](CNS(N)(=O)=O)C3)[C@H](C)[C@H]12` [DORIPENEM], the MIC50 amounted to 0.03 µg/mL in experiment [1]; 0.5 µg/mL in experiment [3]; 0.5 µg/mL in experiment [4]; 0.03 µg/mL in experiment [6]; 0.03 µg/mL in experiment [7]. Further, the MIC90 stood at 0.06 µg/mL in experiment [1]; 4 µg/mL in experiment [3]; 4 µg/mL in experiment [4]; 0.25 µg/mL in experiment [6]; 0.25 µg/mL in experiment [7]. Further, the values for the MIC in experiment [2] and in experiment [5] were 4 µg/mL and 0.125 µg/mL, respectively.

Take `C[C@@H](O)[C@H]1C(=O)N2C(C(=O)O)=C(S[C@H]3C[C@@H](C(=O)N4CC[C@H](NC(=O)CNC(=N)N)C4)N(C)C3)[C@H](C)[C@H]12` [TOMOPENEM]: the MIC50 in experiment [1] is no more than 0.015 µg/mL; in experiment [3], 0.5 µg/mL; in experiment [4], 0.5 µg/mL; in experiment [6], no more than 0.015 µg/mL; in experiment [7] it was no more than 0.015 µg/mL. For the same molecule, the MIC90 in experiment [1] is 0.06 µg/mL; in experiment [3], 4 µg/mL; in experiment [4], 4 µg/mL; in experiment [6], 0.5 µg/mL; in experiment [7] it was 0.5 µg/mL. The figures for the MIC in experiment [2] and in experiment [5] were 2 µg/mL and 0.125 µg/mL, respectively.

Take `CC(=N)N1CC[C@H](SC2=C(C(=O)O)N3C(=O)[C@H]([C@@H](C)O)[C@H]3C2)C1`: the MIC50 in experiment [1] was determined as 0.03 µg/mL; in experiment [3], 1 µg/mL; in experiment [4], 1 µg/mL; in experiment [6], 0.125 µg/mL; in experiment [7], 0.125 µg/mL. Also, the MIC90 in experiment [1] worked out at 0.06 µg/mL; in experiment [3] it was 4 µg/mL; in experiment [4] it was 4 µg/mL; in experiment [6] it was 2 µg/mL; in experiment [7], 2 µg/mL. The MIC in experiment [2] worked out at 1 µg/mL; in experiment [5] it was 0.06 µg/mL.

For the molecule `C[C@@H](O)[C@H]1C(=O)N2C(C(=O)O)=C(S[C@@H]3CN[C@H](C(=O)N(C)C)C3)[C@H](C)[C@H]12` [MEROPENEM], the MIC50 in experiment [1] was no more than 0.015 µg/mL; in experiment [3] it was 0.25 µg/mL; in experiment [4] it was 0.25 µg/mL; in experiment [6] it was 0.03 µg/mL; in experiment [7], 0.03 µg/mL. Further, the MIC90 in experiment [1] came out at 0.03 µg/mL; in experiment [3], 4 µg/mL; in experiment [4], 4 µg/mL; in experiment [6], 0.125 µg/mL; in experiment [7], 0.125 µg/mL. In addition, the MIC amounted to 8 µg/mL in experiment [2] and 0.125 µg/mL in experiment [5].

These data come from ChEMBL document CHEMBL1275576, “In vitro activity of tomopenem (CS-023/RO4908463) against anaerobic bacteria” (Antimicrob Agents Chemother, 2009).
